For data set [1] the following is noted: on its own; share of consumed Dihydromyricetin that enters a person's bloodstream; cited from earlier work.
The nature of data set [2]: bioavailability (share of consumed substance entering the bloodstream). Type of data set: in vivo. The following applies: mixed with an effective amount of a hydrogenated substance such as Erythritol. The procedure:
For use as an additive 50 that accomplishes the various objectives and which provides the aspects of the present invention, the present inventor solved several problems with regard to use of Dihydromyricetin 14a. One such problem is that Dihydromyricetin 14a, on its own, has a solubility of approximately 0.2 mg per ml of fluid, which is very low. Because the solubility of Dihydromyricetin 14a is so low, it cannot be effectively utilized as a medicine or supplement, despite the well known benefits of this flavonoid 14 for people (as well as certain animals). Another issue with Dihydromyricetin 14a is that, on its own, it has a bioavailability of approximately four percent, meaning that only about four percent of consumed Dihydromyricetin 14a enters a person's bloodstream and stays long enough to be biologically effective for product user 56. […] Mixing an effective amount of one or more solvents 60, such as a bicarbonate substance 60a or an alcohol solvent 60b, increases the solubility of Dihydromyricetin 14a from approximately 0.2 mg per ml of fluid to approximately 114 mg per ml of fluid.

Data set [3] in a line: stability / shelf-life. In kind it is physicochemical.

As to `O=C1c2c(O)cc(O)cc2O[C@H](c2cc(O)c(O)c(O)c2)[C@H]1O` [Dihydromyricetin 14a, Dihydromyricetin], the bioavailability result in data set [1] was “approximately four”. Moreover, in data set [2], the “bioavailability of Dihydromyricetin” value is “greatly improves the bioavailability”. For the same compound, the “shelf-life of Dihydromyricetin” value in data set [3] (mixed with an effective amount of Erythritol and/or other hydrogenated substances) is “extends the Dihydromyricetin 14a shelf-life”. Moreover, the stability entry in data set [3] (on its own, light sensitivity and other shelf-life limitations) is “poor stability”.

(Values after patent US20250367162A1, “Additive for Food, Drink and Pharmaceutical Products to Improve Health and Well-Being” (RB2 Enterprises, LLC, priority 2021, published 2025).)
